Assays:
[1] = biological target: Activin receptor type-1-like (Homo sapiens) (UniProt P37023); test: ALK1(h) Millipore kinase panel; details: Compound concentration 1.0 uM
[2] = biological target: Calcium/calmodulin-dependent protein kinase type 1G (Homo sapiens) (UniProt Q96NX5); test: CaMKIgamma(h) Millipore kinase panel; details: Compound concentration 1.0 uM
[3] = biological target: Cyclin-dependent kinase 5/CDK5 activator 1 (Homo sapiens) (UniProt Q00535+Q15078); test: CDK5/p35(h) Millipore kinase panel; assay type: protein-complex assay; details: Compound concentration 1.0 uM
[4] = biological target: Serine/threonine-protein kinase Chk1 (Homo sapiens) (UniProt O14757); test: CHK1(h) Millipore kinase panel; details: Compound concentration 1.0 uM
[5] = biological target: Casein kinase I isoform epsilon (Homo sapiens) (UniProt P49674); test: CK1epsilon(h) Millipore kinase panel; details: Compound concentration 1.0 uM
[6] = biological target: Casein kinase II subunit alpha (Homo sapiens) (UniProt P68400); test: CK2alpha1(h) Millipore kinase panel; details: Compound concentration 1.0 uM
[7] = biological target: Dual specificity tyrosine-phosphorylation-regulated kinase 2 (Homo sapiens) (UniProt Q92630); test: DYRK2(h) Millipore kinase panel; details: Compound concentration 1.0 uM
[8] = biological target: Vascular endothelial growth factor receptor 3 (Homo sapiens) (UniProt P35916); test: Flt4(h) Millipore kinase panel; details: Compound concentration 1.0 uM
[9] = biological target: Beta-adrenergic receptor kinase 1 (Homo sapiens) (UniProt P25098); test: GRK2(h) Millipore kinase panel; details: Compound concentration 1.0 uM
[10] = biological target: G protein-coupled receptor kinase 3 (Homo sapiens) (UniProt P35626); test: GRK3(h) Millipore kinase panel; details: Compound concentration 1.0 uM
[11] = biological target: Tyrosine-protein kinase HCK (Homo sapiens) (UniProt P08631); test: Hck(h) Millipore kinase panel; details: Compound concentration 1.0 uM
[12] = biological target: Inhibitor of nuclear factor kappa-B kinase subunit alpha (Homo sapiens) (UniProt O15111); test: IKKalpha(h) Millipore kinase panel; details: Compound concentration 1.0 uM
[13] = biological target: Mitogen-activated protein kinase 8 (Homo sapiens) (UniProt P45983); test: JNK1alpha1(h) Millipore kinase panel; details: Compound concentration 1.0 uM
[14] = biological target: Hepatocyte growth factor receptor (Homo sapiens) (UniProt P08581); test: Met(h) Millipore kinase panel; details: Compound concentration 1.0 uM
[15] = biological target: Dual specificity mitogen-activated protein kinase kinase 3 (Homo sapiens) (UniProt P46734); test: MKK3(h) Millipore kinase panel; details: Compound concentration 1.0 uM
[16] = biological target: Serine/threonine-protein kinase 26 (Homo sapiens) (UniProt Q9P289); test: MST4(h) Millipore kinase panel; details: Compound concentration 1.0 uM
[17] = biological target: Myosin light chain kinase 2, skeletal/cardiac muscle (Homo sapiens) (UniProt Q9H1R3); test: MYLK2(h) Millipore kinase panel; details: Compound concentration 1.0 uM
[18] = biological target: Serine/threonine-protein kinase Nek4 (Homo sapiens) (UniProt P51957); test: NEK4(h) Millipore kinase panel; details: Compound concentration 1.0 uM
[19] = biological target: [Pyruvate dehydrogenase (acetyl-transferring)] kinase isozyme 4, mitochondrial (Homo sapiens) (UniProt Q16654); test: PDHK4(h) Millipore kinase panel; details: Compound concentration 1.0 uM
[20] = biological target: cAMP-dependent protein kinase catalytic subunit beta (Homo sapiens) (UniProt P22694); test: PKACbeta(h) Millipore kinase panel; details: Compound concentration 1.0 uM
[21] = biological target: Serine/threonine-protein kinase D1 (Homo sapiens) (UniProt Q15139); test: PKCmu(h) Millipore kinase panel; details: Compound concentration 1.0 uM
[22] = biological target: cGMP-dependent protein kinase 1 (Homo sapiens) (UniProt Q13976); test: PKG1alpha(h) Millipore kinase panel; details: Compound concentration 1.0 uM
[23] = biological target: Rho-associated protein kinase 2 (Homo sapiens) (UniProt O75116); test: ROCK-II(h) Millipore kinase panel; details: Compound concentration 1.0 uM
[24] = biological target: Macrophage-stimulating protein receptor (Homo sapiens) (UniProt Q04912); test: Ron(h) Millipore kinase panel; details: Compound concentration 1.0 uM
[25] = biological target: Ribosomal protein S6 kinase alpha-1 (Homo sapiens) (UniProt Q15418); test: Rsk1(h) Millipore kinase panel; details: Compound concentration 1.0 uM
[26] = biological target: Serine/threonine-protein kinase 16 (Homo sapiens) (UniProt O75716); test: STK16(h) Millipore kinase panel; details: Compound concentration 1.0 uM
[27] = biological target: Serine/threonine-protein kinase 32A (Homo sapiens) (UniProt Q8WU08); test: STK32A(h) Millipore kinase panel; details: Compound concentration 1.0 uM
[28] = biological target: High affinity nerve growth factor receptor (Homo sapiens) (UniProt P04629); test: TrkA(h) Millipore kinase panel; details: Compound concentration 1.0 uM
[29] = biological target: Tau-tubulin kinase 1 (Homo sapiens) (UniProt Q5TCY1); test: TTBK1(h) Millipore kinase panel; details: Compound concentration 1.0 uM
[30] = biological target: Serine/threonine-protein kinase WNK2 (Homo sapiens) (UniProt Q9Y3S1); test: WNK2(h) Millipore kinase panel; details: Compound concentration 1.0 uM
[31] = biological target: 5-hydroxytryptamine receptor 2A (Homo sapiens) (UniProt P28223); details: Compound concentration 10.0 uM
[32] = biological target: 5-hydroxytryptamine receptor 2C (Homo sapiens) (UniProt P28335); details: Compound concentration 10.0 uM
[33] = biological target: Kappa-type opioid receptor (Homo sapiens) (UniProt P41145); details: Compound concentration 10.0 uM
[34] = biological target: Muscarinic acetylcholine receptor M3 (Homo sapiens) (UniProt P20309); details: Compound concentration 10.0 uM
[35] = biological target: GABA-A receptor; anion channel (Rattus norvegicus) (UniProt O09028+P15431+P18506+P18508+P19969+P20236+P23574+P23576+P28471+P28473+P30191+P62813+P63079+P63138+Q91ZM7+Q9ES14); details: Compound concentration 10.0 uM
[36] = biological target: Sigma non-opioid intracellular receptor 1 (Homo sapiens) (UniProt Q99720); details: Compound concentration 10.0 uM
[37] = biological target: Beta-1 adrenergic receptor (Homo sapiens) (UniProt P08588); details: Compound concentration 10.0 uM
[38] = biological target: T1, 5-hydroxytryptamine receptor 1A (Homo sapiens) (UniProt P08908); details: Compound concentration 10.0 uM
T1 sequence (whole entry): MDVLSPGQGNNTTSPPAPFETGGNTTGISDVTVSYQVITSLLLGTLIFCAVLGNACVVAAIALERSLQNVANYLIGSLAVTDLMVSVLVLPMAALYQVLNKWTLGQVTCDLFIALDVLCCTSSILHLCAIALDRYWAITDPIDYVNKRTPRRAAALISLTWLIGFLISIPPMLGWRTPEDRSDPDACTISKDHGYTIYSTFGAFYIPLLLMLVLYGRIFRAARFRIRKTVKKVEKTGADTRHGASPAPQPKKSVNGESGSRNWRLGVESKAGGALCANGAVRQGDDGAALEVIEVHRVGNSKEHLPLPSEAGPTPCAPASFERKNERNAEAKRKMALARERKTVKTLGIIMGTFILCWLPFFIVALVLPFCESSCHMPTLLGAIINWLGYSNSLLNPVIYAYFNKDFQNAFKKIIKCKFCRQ

[39] = biological target: cGMP-specific 3',5'-cyclic phosphodiesterase (Homo sapiens) (UniProt O76074); details: Compound concentration 10.0 uM
[40] = biological target: Gamma-aminobutyric acid type B receptor subunit 1 (Homo sapiens) (UniProt Q9UBS5); details: Rattus norvegicus; Compound concentration 10.0 uM
Gamma-aminobutyric acid type B receptor subunit 1 (Homo sapiens), sequence (Q9UBS5 whole entry): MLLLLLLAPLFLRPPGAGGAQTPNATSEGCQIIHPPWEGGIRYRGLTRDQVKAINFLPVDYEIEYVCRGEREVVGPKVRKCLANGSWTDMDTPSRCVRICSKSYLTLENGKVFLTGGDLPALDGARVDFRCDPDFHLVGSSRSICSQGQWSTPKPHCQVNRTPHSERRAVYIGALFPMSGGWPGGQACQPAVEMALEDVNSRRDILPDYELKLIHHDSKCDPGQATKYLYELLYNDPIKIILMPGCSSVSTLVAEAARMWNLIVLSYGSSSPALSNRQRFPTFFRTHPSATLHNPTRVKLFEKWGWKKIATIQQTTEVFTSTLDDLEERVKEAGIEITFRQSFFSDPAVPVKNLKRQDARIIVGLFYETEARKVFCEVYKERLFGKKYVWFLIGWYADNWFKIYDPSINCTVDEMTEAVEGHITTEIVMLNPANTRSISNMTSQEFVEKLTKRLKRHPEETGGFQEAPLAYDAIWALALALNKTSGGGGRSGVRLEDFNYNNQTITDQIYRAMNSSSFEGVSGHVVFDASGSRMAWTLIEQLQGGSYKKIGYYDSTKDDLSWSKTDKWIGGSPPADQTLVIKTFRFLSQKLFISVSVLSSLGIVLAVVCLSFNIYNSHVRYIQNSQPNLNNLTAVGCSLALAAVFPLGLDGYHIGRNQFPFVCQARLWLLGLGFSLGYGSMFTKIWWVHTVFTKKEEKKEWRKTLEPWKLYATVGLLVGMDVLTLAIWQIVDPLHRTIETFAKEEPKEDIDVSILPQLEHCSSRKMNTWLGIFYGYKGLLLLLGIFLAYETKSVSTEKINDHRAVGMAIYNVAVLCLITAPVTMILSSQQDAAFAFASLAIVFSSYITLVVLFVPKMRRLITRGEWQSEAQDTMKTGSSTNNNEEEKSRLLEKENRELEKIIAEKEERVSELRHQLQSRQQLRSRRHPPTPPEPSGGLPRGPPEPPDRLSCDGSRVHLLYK

Serine/threonine-protein kinase 26 (Homo sapiens), sequence (Q9P289 2-416 limits assumed): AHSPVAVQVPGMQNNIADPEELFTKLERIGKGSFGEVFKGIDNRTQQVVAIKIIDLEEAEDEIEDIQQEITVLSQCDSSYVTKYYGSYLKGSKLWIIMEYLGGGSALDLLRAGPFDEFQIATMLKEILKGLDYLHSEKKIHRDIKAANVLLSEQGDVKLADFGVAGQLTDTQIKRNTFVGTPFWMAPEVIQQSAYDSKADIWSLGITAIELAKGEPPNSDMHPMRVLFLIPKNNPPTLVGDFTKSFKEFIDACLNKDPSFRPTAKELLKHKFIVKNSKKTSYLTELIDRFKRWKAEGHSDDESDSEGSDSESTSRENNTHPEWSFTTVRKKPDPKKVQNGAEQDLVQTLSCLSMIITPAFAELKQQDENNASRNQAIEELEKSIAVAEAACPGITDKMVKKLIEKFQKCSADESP
Casein kinase II subunit alpha (Homo sapiens), sequence (P68400 whole entry, looked up): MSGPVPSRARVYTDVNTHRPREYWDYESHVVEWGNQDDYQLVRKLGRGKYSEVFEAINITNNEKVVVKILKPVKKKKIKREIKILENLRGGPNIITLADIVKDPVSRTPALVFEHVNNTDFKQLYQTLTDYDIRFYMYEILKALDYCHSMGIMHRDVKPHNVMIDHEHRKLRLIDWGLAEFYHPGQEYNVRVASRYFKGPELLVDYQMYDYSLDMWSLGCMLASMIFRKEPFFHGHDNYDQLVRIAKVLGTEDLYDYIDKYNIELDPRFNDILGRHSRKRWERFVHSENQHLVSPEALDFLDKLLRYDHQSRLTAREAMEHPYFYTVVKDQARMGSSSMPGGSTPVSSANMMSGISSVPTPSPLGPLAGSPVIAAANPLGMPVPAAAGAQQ
Casein kinase I isoform epsilon (Homo sapiens), sequence (P49674 whole entry, looked up, canonical isoform): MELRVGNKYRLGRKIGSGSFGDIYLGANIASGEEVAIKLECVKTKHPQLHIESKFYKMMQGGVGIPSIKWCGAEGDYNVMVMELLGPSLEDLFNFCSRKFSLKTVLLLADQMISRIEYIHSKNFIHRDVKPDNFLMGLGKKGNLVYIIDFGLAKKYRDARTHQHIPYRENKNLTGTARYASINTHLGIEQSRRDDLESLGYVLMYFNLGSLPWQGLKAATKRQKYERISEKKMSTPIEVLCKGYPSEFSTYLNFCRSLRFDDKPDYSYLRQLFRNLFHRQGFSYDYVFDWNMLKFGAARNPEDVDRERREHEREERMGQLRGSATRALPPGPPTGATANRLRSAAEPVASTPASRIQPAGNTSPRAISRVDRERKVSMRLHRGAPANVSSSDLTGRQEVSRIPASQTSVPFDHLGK
Activin receptor type-1-like (Homo sapiens), sequence (P37023 whole entry): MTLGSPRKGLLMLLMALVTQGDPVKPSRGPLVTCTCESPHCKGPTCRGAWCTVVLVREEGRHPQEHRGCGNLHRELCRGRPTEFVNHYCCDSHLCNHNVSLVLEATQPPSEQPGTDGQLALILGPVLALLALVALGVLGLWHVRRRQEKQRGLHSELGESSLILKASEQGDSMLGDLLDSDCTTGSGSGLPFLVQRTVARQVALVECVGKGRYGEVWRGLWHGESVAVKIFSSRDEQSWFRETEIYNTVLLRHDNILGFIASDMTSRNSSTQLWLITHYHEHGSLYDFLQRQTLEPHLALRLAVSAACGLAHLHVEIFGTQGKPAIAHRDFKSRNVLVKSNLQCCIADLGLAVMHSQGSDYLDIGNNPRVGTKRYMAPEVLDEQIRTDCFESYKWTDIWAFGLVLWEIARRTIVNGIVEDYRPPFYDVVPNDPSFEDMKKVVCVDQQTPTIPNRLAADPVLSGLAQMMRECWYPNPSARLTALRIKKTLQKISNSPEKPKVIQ
Muscarinic acetylcholine receptor M3 (Homo sapiens), sequence (P20309 whole entry, looked up): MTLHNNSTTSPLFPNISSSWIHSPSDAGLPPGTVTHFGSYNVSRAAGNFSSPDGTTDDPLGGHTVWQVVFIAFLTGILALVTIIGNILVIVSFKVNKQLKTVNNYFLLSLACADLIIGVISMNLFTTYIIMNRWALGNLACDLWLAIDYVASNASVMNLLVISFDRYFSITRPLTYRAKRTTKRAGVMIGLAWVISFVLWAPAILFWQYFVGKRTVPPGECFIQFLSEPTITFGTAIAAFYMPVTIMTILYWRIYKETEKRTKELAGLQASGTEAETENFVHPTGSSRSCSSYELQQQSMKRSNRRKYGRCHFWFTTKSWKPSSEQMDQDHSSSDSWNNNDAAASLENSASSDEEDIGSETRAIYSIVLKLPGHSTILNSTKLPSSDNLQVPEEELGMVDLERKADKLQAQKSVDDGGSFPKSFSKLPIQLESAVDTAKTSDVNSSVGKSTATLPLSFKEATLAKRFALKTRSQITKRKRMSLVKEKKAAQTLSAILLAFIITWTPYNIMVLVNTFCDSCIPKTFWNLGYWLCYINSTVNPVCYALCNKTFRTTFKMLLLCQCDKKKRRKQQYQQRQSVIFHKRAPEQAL
Tau-tubulin kinase 1 (Homo sapiens), sequence (Q5TCY1 whole entry): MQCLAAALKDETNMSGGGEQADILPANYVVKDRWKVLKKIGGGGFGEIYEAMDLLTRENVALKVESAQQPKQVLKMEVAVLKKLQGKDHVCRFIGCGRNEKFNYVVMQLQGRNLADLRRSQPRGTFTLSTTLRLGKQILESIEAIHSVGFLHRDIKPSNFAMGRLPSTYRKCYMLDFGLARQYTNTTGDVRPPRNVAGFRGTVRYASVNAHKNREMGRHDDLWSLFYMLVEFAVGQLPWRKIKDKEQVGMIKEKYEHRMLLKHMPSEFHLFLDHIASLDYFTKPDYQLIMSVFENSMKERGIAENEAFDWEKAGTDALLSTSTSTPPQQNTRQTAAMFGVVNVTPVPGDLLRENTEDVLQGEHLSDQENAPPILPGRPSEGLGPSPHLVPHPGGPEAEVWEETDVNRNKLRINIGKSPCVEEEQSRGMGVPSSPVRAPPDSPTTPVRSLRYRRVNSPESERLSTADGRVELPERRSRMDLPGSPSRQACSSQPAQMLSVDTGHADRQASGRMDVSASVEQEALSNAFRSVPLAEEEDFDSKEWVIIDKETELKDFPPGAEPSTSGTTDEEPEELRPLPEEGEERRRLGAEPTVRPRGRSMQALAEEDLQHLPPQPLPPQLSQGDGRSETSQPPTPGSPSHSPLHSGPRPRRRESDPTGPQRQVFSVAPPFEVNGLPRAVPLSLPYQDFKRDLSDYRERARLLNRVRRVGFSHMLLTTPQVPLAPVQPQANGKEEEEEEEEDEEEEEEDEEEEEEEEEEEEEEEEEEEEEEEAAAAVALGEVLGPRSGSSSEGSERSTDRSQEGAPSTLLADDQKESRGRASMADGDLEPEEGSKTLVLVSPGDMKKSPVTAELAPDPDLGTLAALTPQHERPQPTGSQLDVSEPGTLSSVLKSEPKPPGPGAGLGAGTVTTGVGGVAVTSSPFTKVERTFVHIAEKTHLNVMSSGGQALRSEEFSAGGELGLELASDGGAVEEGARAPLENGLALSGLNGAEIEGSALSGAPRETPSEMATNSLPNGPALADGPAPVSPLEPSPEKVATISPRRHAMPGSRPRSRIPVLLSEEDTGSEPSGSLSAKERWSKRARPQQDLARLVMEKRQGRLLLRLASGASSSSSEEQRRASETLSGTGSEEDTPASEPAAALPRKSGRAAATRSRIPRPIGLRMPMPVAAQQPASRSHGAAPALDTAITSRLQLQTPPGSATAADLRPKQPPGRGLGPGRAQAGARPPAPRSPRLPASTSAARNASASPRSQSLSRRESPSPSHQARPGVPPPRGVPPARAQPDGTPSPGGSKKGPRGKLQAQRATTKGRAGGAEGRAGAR
Mitogen-activated protein kinase 8 (Homo sapiens), sequence (P45983 whole entry): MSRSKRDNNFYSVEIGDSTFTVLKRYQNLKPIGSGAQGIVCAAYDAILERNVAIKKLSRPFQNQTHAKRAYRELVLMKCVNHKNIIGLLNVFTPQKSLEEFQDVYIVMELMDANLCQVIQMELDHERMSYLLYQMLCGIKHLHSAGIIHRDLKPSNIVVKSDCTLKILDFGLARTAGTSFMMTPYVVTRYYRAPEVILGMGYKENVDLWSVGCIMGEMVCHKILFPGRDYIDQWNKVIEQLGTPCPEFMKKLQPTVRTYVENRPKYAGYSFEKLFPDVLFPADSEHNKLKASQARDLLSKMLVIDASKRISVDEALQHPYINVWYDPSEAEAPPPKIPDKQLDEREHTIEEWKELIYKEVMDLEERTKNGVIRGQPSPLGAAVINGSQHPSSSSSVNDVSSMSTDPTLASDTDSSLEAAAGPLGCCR

Question: `CC[C@@H](Nc1c(C#N)c(-c2ccc(-c3cccc(C)c3F)cc2)nc2cnccc12)C(=O)O` [BAY-091] was tested. Which inhibition [1] did it give?
Answer: Its inhibition is -6.17%.

Question: What about the inhibition [2] of the same compound?
Answer: Its inhibition is 14.4%.

Question: What about the inhibition [3] of the same compound?
Answer: Its inhibition is -0.03%.

Question: And the inhibition [4]?
Answer: The inhibition was 4.56%.

Question: And the inhibition [5]?
Answer: Its inhibition is 8.85%.

Question: And the inhibition [6]?
Answer: The inhibition was 3.34%.

Question: And the inhibition [7]?
Answer: Its inhibition is 19.1%.

Question: What about the inhibition [8] of the same compound?
Answer: The inhibition was 12.9%.

Question: What about the inhibition [9] of the same compound?
Answer: The inhibition was 1.9%.

Question: What about the inhibition [10] of the same compound?
Answer: The inhibition was 8.23%.

Question: What about the inhibition [11] of the same compound?
Answer: The inhibition was 0.45%.

Question: And the inhibition [12]?
Answer: Its inhibition is 3.94%.

Question: What about the inhibition [13] of the same compound?
Answer: The inhibition was 4.24%.

Question: What about the inhibition [14] of the same compound?
Answer: Its inhibition is 2.36%.

Question: And the inhibition [15]?
Answer: The inhibition was 12.8%.

Question: What about the inhibition [16] of the same compound?
Answer: Its inhibition is 5.69%.

Question: And the inhibition [17]?
Answer: Its inhibition is 7.84%.

Question: And the inhibition [18]?
Answer: Its inhibition is 32.1%.

Question: What about the inhibition [19] of the same compound?
Answer: The inhibition was 9.88%.

Question: What about the inhibition [20] of the same compound?
Answer: Its inhibition is 6.73%.

Question: What about the inhibition [21] of the same compound?
Answer: The inhibition was 12.7%.

Question: And the inhibition [22]?
Answer: The inhibition was 6.77%.

Question: And the inhibition [23]?
Answer: The inhibition was -0.6%.

Question: What about the inhibition [24] of the same compound?
Answer: The inhibition was 0.76%.

Question: What about the inhibition [25] of the same compound?
Answer: The inhibition was -6.03%.

Question: What about the inhibition [26] of the same compound?
Answer: The inhibition was 9.54%.

Question: What about the inhibition [27] of the same compound?
Answer: The inhibition was 16%.

Question: And the inhibition [28]?
Answer: The inhibition was 5.32%.

Question: And the inhibition [29]?
Answer: The inhibition was -2.05%.

Question: What about the inhibition [30] of the same compound?
Answer: The inhibition was 3.31%.

Question: What about the inhibition [31] of the same compound?
Answer: Its inhibition is -8.43%.

Question: And the inhibition [32]?
Answer: Its inhibition is -9.38%.

Question: What about the inhibition [33] of the same compound?
Answer: Its inhibition is 0.48%.

Question: And the inhibition [34]?
Answer: Its inhibition is -8.52%.

Question: What about the inhibition [35] of the same compound?
Answer: Its inhibition is 29.9%.

Question: What about the inhibition [36] of the same compound?
Answer: Its inhibition is 35.8%.

Question: And the inhibition [37]?
Answer: The inhibition was 2%.

Question: What about the inhibition [38] of the same compound?
Answer: The inhibition was 27%.

Question: What about the inhibition [39] of the same compound?
Answer: Its inhibition is 62%.

Question: What about the inhibition [40] of the same compound?
Answer: Its inhibition is 5%.
